Assays:
[1] = fresh or as designated
[2] = system: rats; conditions: subchronic

SMILES	Independent Lab Cond. [1]	NOEL ([2]; bladder hyperplasia, rats)	Bladder Hyperplasia (finding) ([2]; in rats >5000 ppm)
CC(C)COP(=O)(OCC(C)C)OCC(C)C [TIBP, triisobutyl phosphate]	0.001 μMHO/cm	5000 ppm	None observed
CCCCOP(=O)(OCCCC)Oc1ccccc1 [DBPP, dibutyl phenyl phosphate, reference compound]	0.008 μMHO/cm		

Source: patent USRE37101E, “Stabilized phosphate ester-based functional fluid compositions” (Solutia Inc., priority 1997, dated 2001)
